From PubChem BioAssay (NCI) come the findings set out here.

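Where inhibition never reached the appropriate level, the endpoint shown equals the highest concentration tested. Otherwise, values were interpolated linearly from a five-concentration, 48-hour dose response in 96-well plates. GI50 = concentration required for 50% inhibition of growth. TGI: total growth inhibition.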

Test systems include SK-MEL-5 melanoma; SK-OV-3 ovarian; SNB-19 CNS; MALME-3M melanoma; A498 renal; SN12C renal; OVCAR-3 ovarian; HOP-62 NSCLC; LOX IMVI melanoma; HCT-116 colon.
What all share (test): DTP human tumour cell line panel, 48 h

For the compound `CCCCCCCCCCCCCCCCCCOc1ccccc1COP(=O)(O)OOCC[N+](C)(C)C`, the GI50 was 0.813 µM in the assay with SK-MEL-5 melanoma; 2.38 µM with SK-OV-3 ovarian; 1.44 µM in the assay with SNB-19 CNS; 1.16 µM in the assay with MALME-3M melanoma; 6.88 µM with A498 renal; 1.1 µM with SN12C renal. Moreover, the GI50 with OVCAR-3 ovarian is 0.993 µM; with HOP-62 NSCLC, 2.19 µM. Further, the TGI turned out to be 1.5 µM in the assay with SK-MEL-5 melanoma; 10.6 µM in the assay on SK-OV-3 ovarian; 7.76 µM in the assay with SNB-19 CNS; 3.21 µM with MALME-3M melanoma; 17.2 µM in the assay with A498 renal; 3.17 µM in the assay with SN12C renal. The TGI in the assay on OVCAR-3 ovarian is 2.56 µM; with HOP-62 NSCLC, 15.4 µM.
`O=C1OC(c2ccccc2Br)=N/C1=C/c1ccccc1`: the TGI in the assay with SK-MEL-5 melanoma was over 100 µM; with SK-OV-3 ovarian it was over 100 µM; with SNB-19 CNS, 96.8 µM; in the assay on MALME-3M melanoma, 45.5 µM; in the assay on A498 renal, over 100 µM; in the assay with OVCAR-3 ovarian, 35.4 µM. Further, the TGI in the assay on LOX IMVI melanoma is 38.8 µM; in the assay with HCT-116 colon it was over 100 µM; with HOP-62 NSCLC, 49.4 µM.
With `COC(=O)Cc1c(C2C(CC(=O)OC)c3ccccc3N2C2OC(CO)C(O)C(O)C2O)[nH]c2ccccc12` (stereo not drawn), the TGI in the assay with SK-MEL-5 melanoma, in the assay with SK-OV-3 ovarian, in the assay on SNB-19 CNS, in the assay with MALME-3M melanoma, in the assay on A498 renal and in the assay on SN12C renal was over 100 µM throughout. Moreover, the TGI in the assay with OVCAR-3 ovarian, in the assay with HCT-116 colon and in the assay with HOP-62 NSCLC was over 100 µM throughout.
In the case of `NC(CSCSCC(N)C(=O)O)C(=O)O` (stereo not drawn), the TGI in the assay with SK-MEL-5 melanoma, in the assay on SK-OV-3 ovarian, in the assay on SNB-19 CNS, in the assay on MALME-3M melanoma, with A498 renal and in the assay on SN12C renal was over 225 µM each time. Also, the TGI in the assay with OVCAR-3 ovarian, in the assay with LOX IMVI melanoma, with HCT-116 colon and in the assay with HOP-62 NSCLC was over 225 µM in each case.
Consider `CC(C)(C)CI`, for which the TGI was 30.9 µM with SK-MEL-5 melanoma; over 100 µM in the assay with SK-OV-3 ovarian; 89.1 µM in the assay with SNB-19 CNS; 46.6 µM in the assay on MALME-3M melanoma; over 100 µM with A498 renal; 32.4 µM with SN12C renal. Further, the values for the TGI with OVCAR-3 ovarian, in the assay with LOX IMVI melanoma and in the assay with HCT-116 colon were 35.4 µM, 33.4 µM and 39.7 µM, respectively.
In the case of `O=c1oc2ccccc2n1P(=O)(Oc1ccc(Cl)cc1)n1c(=O)oc2ccccc21`, the TGI with SK-MEL-5 melanoma, in the assay with SK-OV-3 ovarian, with SNB-19 CNS, with MALME-3M melanoma, in the assay with A498 renal and in the assay on SN12C renal was over 100 µM throughout. Also, the TGI in the assay on OVCAR-3 ovarian, with LOX IMVI melanoma, with HCT-116 colon and in the assay with HOP-62 NSCLC was over 100 µM each time.
Regarding `C#CCNC(=O)CC[C@@H](C)[C@H]1CC[C@H]2[C@@H]3CC[C@@H]4CC(=O)CC[C@]4(C)[C@H]3CC[C@]12C`, the GI50 was 8.71 µM in the assay with SK-MEL-5 melanoma; 28.8 µM in the assay with SK-OV-3 ovarian; 24.3 µM in the assay with SNB-19 CNS; 14 µM in the assay on MALME-3M melanoma; 25 µM in the assay on A498 renal; 13.2 µM in the assay on SN12C renal. Moreover, the GI50 in the assay with OVCAR-3 ovarian is 13.8 µM; with LOX IMVI melanoma, 17.5 µM; with HCT-116 colon, 12.9 µM; in the assay with HOP-62 NSCLC it was 16.6 µM. In addition, the TGI is 23.2 µM with SK-MEL-5 melanoma; over 100 µM in the assay on SK-OV-3 ovarian; 71 µM in the assay with SNB-19 CNS; 31.7 µM in the assay with MALME-3M melanoma; over 100 µM in the assay on A498 renal; 32.1 µM with SN12C renal. In addition, the TGI was found to be 36.1 µM with OVCAR-3 ovarian, 39.8 µM in the assay on LOX IMVI melanoma, 52 µM with HCT-116 colon and 40.4 µM in the assay with HOP-62 NSCLC.
As to `CC1OC(CO)(n2cnc3c(N)ncnc32)C(O)C1O` (stereo not drawn), the TGI in the assay with SK-MEL-5 melanoma, with SK-OV-3 ovarian, in the assay on SNB-19 CNS, in the assay on MALME-3M melanoma, with A498 renal and in the assay on SN12C renal was over 100 µM in each case. In addition, the TGI with OVCAR-3 ovarian, with LOX IMVI melanoma, with HCT-116 colon and with HOP-62 NSCLC was over 100 µM each time.

As a reminder, the GI50 is the concentration at which growth is held to half of that of the control. In general, TGI refers to the concentration giving total growth inhibition. A high value points to lower sensitivity of the cells.
